Results published in BindingDB's records for doi:10.1016/s0960-894x(03)00680-2 (Merck Research Laboratories, 2003).

Experiments:
Assay in all cases: Protease Inhibition Assay
[1] = biological target: T1, Dimer of Gag-Pol polyprotein [489-587,Q496K,L499I,M525I,N526D,M535I,R546K,L552P,A560V,G562S,I573V,L579M,I582L] (Human immunodeficiency virus 1, UniProt P12497, A560V/G562S/I573V/I582L/L499I/L552P/L579M/M525I/M535I/N526D/Q496K/R546K)
T1 construct: 489-587
Protocol: (§1) Assay of HIV protease inhibition was performed by peptide cleavage using the substrate Val-Ser-Gln-Asn-beta-naphthylalanine*Pro-Ile-Val. Products of the cleavage reaction were quantified by HPLC detection, and data were fit to nonlinear least squares equations for determination of steady-state Michaelis-Menten kinetics.

[2] = biological target: T2, Dimer of Gag-Pol polyprotein [489-587,Q496K,L499I,M535I,I543V,Q547E,L552P,I553V,V566I,V571F,I573V,L579M,I582L] (Human immunodeficiency virus 1, UniProt P12497, I543V/I553V/I573V/I582L/L499I/L552P/L579M/M535I/Q496K/Q547E/V566I/V571F)
T2 construct: 489-587
Protocol: as §1

[3] = biological target: T3, Dimer of Gag-Pol polyprotein [489-587,Q496K,L499I,N526S,R530K,M535I,I543V,I551V,L552P,A560V,V566I,V571A,L579M,I582L] (Human immunodeficiency virus 1, UniProt P12497, A560V/I543V/I551V/I582L/L499I/L552P/L579M/M535I/N526S/Q496K/R530K/V566I/V571A)
T3 construct: 489-587
Protocol: as §1

[4] = biological target: T4, Dimer of Gag-Pol polyprotein [489-587,Q496K] (Human immunodeficiency virus 1, UniProt P12497, Q496K); details: pH 5.5; 30 °C
T4 construct: 489-587
Protocol: as §1

Compound	IC50 [1]	IC50 [2]	IC50 [3]	IC50 [4]
O=C(N[C@H]1c2ccccc2OC[C@H]1O)[C@H](Cc1ccncc1)C[C@H](O)CN1CCN(Cc2cc3ccsc3s2)C[C@H]1C(=O)NCC(F)(F)F [(2S)-1-[(2S,4R)-2-hydroxy-4-{[(3S,4S)-3-hydroxy-3,4-dihydro-2H-1-benzopyran-4-yl]carbamoyl}-4-(pyridin-4-ylmethyl)butyl]-4-{thieno[2,3-b]thiophen-2-ylmethyl}-N-(2,2,2-trifluoroethyl)piperazine-2-carboxamide]	1.2 nM	20 nM	4.8 nM	0.07 nM
O=C(N[C@H]1c2ccccc2OC[C@H]1O)[C@H](Cc1cccnc1)C[C@H](O)CN1CCN(Cc2cc3ccsc3s2)C[C@H]1C(=O)NCC(F)(F)F [(2S)-1-[(2S,4R)-2-hydroxy-4-{[(3S,4S)-3-hydroxy-3,4-dihydro-2H-1-benzopyran-4-yl]carbamoyl}-4-(pyridin-3-ylmethyl)butyl]-4-{thieno[2,3-b]thiophen-2-ylmethyl}-N-(2,2,2-trifluoroethyl)piperazine-2-carboxamide]	0.43 nM	5 nM	3.2 nM	0.03 nM
